Where two headings read alike, the source gives them in different places.
Assays:
[1] = test system: rats, mice, rabbits and dogs; assay: Acute and multidose (28 day) toxicity studies, intranasal and intravenous; format: in vivo; conditions: single intranasal up to 100 μg/rat, 400 μg/rabbit, 600 μg/dog; repeated up to 50 μg/rat/day, 300 μg/dog/day; intravenous single and repeated up to 2.5 mg/kg
[2] = Ames reverse mutation assay; format: cell-based
bone marrow = assay: in vivo bone marrow micronucleus test
pregnant rabbits = assay: Reproductive toxicity studies in pregnant rabbits; format: in vivo; conditions: intravenous doses up to 2.5 mg/kg/day during the period of organogenesis
[3] = Preclinical pharmacokinetic studies, intranasal doses; format: in vivo; conditions: repeated or single escalating intranasal doses up to 100 μg/rat, 400 μg/rabbit, 600 μg/dog
[4] = Preclinical pharmacokinetic studies, intravenous doses; format: in vivo, rats, rabbits, or dogs; conditions: single repeated intravenous doses up to 2.5 mg/kg
[5] = test system: women of reproductive age; assay: Intranasal spray 500 nanograms in 14 women of reproductive age, autonomic and physiologic effects vs vehicle; format: in vivo, human; conditions: 500 nanograms intranasal, compared to the vehicle
[6] = test system: women of reproductive age; assay: Intranasal spray 1600 nanograms in women of reproductive age, core body temperature and sympathoadrenergic tone; format: in vivo, human; conditions: 1600 nanograms intranasal
Experimental: In another test also in women of reproductive age, intranasal delivery of a nasal spray containing 1600 nanograms of 16α,17α-epoxy-10β-hydroxyestr-4-en-3-one (one administration per nostril by a Valois intranasal spray pump of 50 μL of an aqueous solution of 16 μg/mL 16α,17α-epoxy-10β-hydroxyestr-4-en-3-one with 2% propylene glycol and 2% ethanol) caused a rapid (0.5 to 4 minute latency) decrease in core body temperature of 1±0.23° C. that persisted for 9±2.5 minutes.

hot flashes [7] = conditions: placebo response rate 37.8%, cited from earlier work
hot flashes [8] = conditions: cited from earlier work
hot flashes [9] = conditions: oral and transdermal clonidine; cited from earlier work
hot flashes [10] = conditions: 27% for placebo, cited from earlier work
hot flashes [11] = conditions: crossover analysis; cited from earlier work
hot flashes [12] = conditions: vs. 29% for placebo; cited from earlier work

C[C@]12CC[C@H]3[C@@H](CCC4=CC(=O)CC[C@@]43O)[C@@H]1C[C@H]1O[C@H]12 [16α,17α-epoxy-10β-hydroxyestr-4-en-3-one, 16α,17α-Epoxy-10β-hydroxyestr-4-en-3-one]
tolerability (deaths, adverse clinical signs, effects on laboratory or pathology parameters) [1]: well tolerated in all species tested | mutagenic or clastogenic potential [2]: no evidence of mutagenic or clastogenic potential | mutagenic or clastogenic potential (bone marrow): no evidence of mutagenic or clastogenic potential | effects on maternal or litter parameters (pregnant rabbits): no adverse effects on maternal or litter parameters | systemic exposure [3]: very low systemic exposure | plasma concentrations [4]: generally were dose-proportional and decreased rapidly | cardiac frequency [5]: not statistically significant increase | core body temperature [5]: statistically significant decreases | electrodermal activity (skin conductance) [5]: statistically significant decreases | electromyographic activity [5]: statistically significant decreases | respiratory frequency [5]: statistically significant decreases | vagal tone [5]: statistically significant increases | decrease in core body temperature [6]: 1±0.23 °C | persistence of decrease in core body temperature [6]: 9 ± 2.5 min | time to reduced tone of the sympathoadrenergic system (physiologic sinus arrhythmia) [6]: ≤ 5 minutes

Fc1ccc([C@@H]2CCNC[C@H]2COc2ccc3c(c2)OCO3)cc1 [Paroxetine]
decrease of hot flash composite scores (hot flashes [7]; 12.5 mg/day): 62% | decrease of hot flash composite scores (hot flashes [7]; 25.0 mg/day): 65%

Clc1cccc(Cl)c1N=C1NCCN1 [clonidine, Clonidine]
reduction of hot flash frequency (hot flashes [8]; oral clonidine): 46% | reduction of hot flash frequency (hot flashes [8]; transdermal clonidine): 80% | reductions in hot flash frequency compared with placebo (hot flashes [9]): smaller, but significant reductions

COc1ccc(C(CN(C)C)C2(O)CCCCC2)cc1 (stereo not drawn) [venlafaxine, Venlafaxine]
reduction of hot flash scores from baseline (hot flashes [10]; 37.5 mg/day): 37% | reduction of hot flash scores from baseline (hot flashes [10]; 75 and 150 mg/day): 60%

CNCCC(Oc1ccc(C(F)(F)F)cc1)c1ccccc1 (stereo not drawn) [Fluoxetine]
reduction in hot flash frequency over the placebo condition (hot flashes [11]): ~20%

NCC1(CC(=O)O)CCCCC1 [Gabapentin]
reduction of hot flash frequency (hot flashes [12]): 45%
